Molecules are shown by their SMILES. A value given as a limit tells only on which side of the number the result lay.

One test has as its target Apolipoprotein L1 (Homo sapiens, UniProt O14791). The experiment in a line: Inhibition of APOL1 G1 variant in human HEK293-T-REx cells measured by Thallium assay. The test is classed as cell-based.
Test [1] concerns Trypanosoma brucei brucei. The experiment in a line: Antitrypanosomal activity against Trypanosoma brucei brucei assessed as trypanosome lysis using recombinant APOL1 protein G1 variant and measured by Alamar blue based fluoresence assay. The test is classed as functional, organism-based.

Regarding `O=C([C@H]1C[C@H](c2c(-c3ccc(F)cc3)[nH]c3c(F)cc(F)cc32)C1)N1CCN(CCO)CC1`, the IC50 (against Apolipoprotein L1; in test [1]) was greater than 1000 nM throughout.

For the compound `O=C([C@H]1C[C@H](c2c(-c3ccc(F)cc3)[nH]c3c(F)cc(F)cc32)C1)N1CCCC1CCO` (stereo partly drawn), the results for the IC50 (against Apolipoprotein L1; in test [1]) were greater than 1000 nM and 250 nM, respectively.

For `CCN(CCO)C(=O)[C@H]1C[C@H](c2c(-c3ccc(F)cc3)[nH]c3c(F)cc(F)cc32)C1`, the values for the IC50 (on Apolipoprotein L1; in test [1]) were 0.25 nM and 250 nM, respectively.

`O=C([C@H]1C[C@H](c2c(-c3ccc(F)cc3)[nH]c3c(F)cc(F)cc32)C1)N1CCC[C@@H](CO)C1`: the IC50 (against Apolipoprotein L1; in test [1]) was greater than 1000 nM in each case.

`CC(CO)N1CCN(C(=O)[C@H]2C[C@H](c3c(-c4ccc(F)cc4)[nH]c4c(F)cc(F)cc43)C2)CC1` (stereo partly drawn): the IC50 (on Apolipoprotein L1; in test [1]) was greater than 1000 nM each time.

As to `O=C([C@H]1C[C@H](c2c(-c3ccc(F)cc3)[nH]c3c(F)cc(F)cc32)C1)N(CCO)CCCO`, the IC50 against Apolipoprotein L1 was greater than 1000 nM; in test [1], 250 nM.

Turning to `CC(C)N(CCO)C(=O)[C@H]1C[C@H](c2c(-c3ccc(F)cc3)[nH]c3c(F)cc(F)cc32)C1`, the IC50 against Apolipoprotein L1 is greater than 1000 nM; in test [1], 250 nM.

Turning to `CC(O)CN(CCO)C(=O)[C@H]1C[C@H](c2c(-c3ccc(F)cc3)[nH]c3c(F)cc(F)cc32)C1` (stereo partly drawn), the 50% inhibitory concentration (IC50) against Apolipoprotein L1 is 0.25 nM; in test [1] it was less than 250 nM.

In the case of `CC1(C)CN(C(=O)[C@H]2C[C@H](c3c(-c4ccc(F)cc4)[nH]c4c(F)cc(F)cc43)C2)CC1O` (stereo partly drawn), the IC50 (against Apolipoprotein L1; in test [1]) was greater than 1000 nM throughout.

Take `O=C(NCCOCCO)[C@H]1C[C@H](c2c(-c3ccc(F)cc3)[nH]c3c(F)cc(F)cc32)C1`: the IC50 (against Apolipoprotein L1; in test [1]) was less than 250 nM throughout.

With `O=C([C@H]1C[C@H](c2c(-c3ccc(F)cc3)[nH]c3c(F)cc(F)cc32)C1)N1CCO[C@H](CO)C1`, the IC50 (against Apolipoprotein L1; in test [1]) was greater than 1000 nM throughout.

As for `CC1(C)CN(C(=O)[C@H]2C[C@H](c3c(-c4ccc(F)cc4)[nH]c4c(F)cc(F)cc43)C2)CCC1O` (stereo partly drawn), the IC50 (on Apolipoprotein L1; in test [1]) was greater than 1000 nM throughout.

As for `CC1(O)CC(C(=O)N2CCN(C(=O)[C@H]3C[C@H](c4c(-c5ccc(F)cc5)[nH]c5c(F)cc(F)cc54)C3)CC2(C)C)C1` (stereo partly drawn), the IC50 (against Apolipoprotein L1; in test [1]) was greater than 1000 nM throughout.

With `O=C([C@H]1C[C@H](c2c(-c3ccc(F)cc3)[nH]c3c(F)cc(F)cc32)C1)N1CCCC(CCO)C1` (stereo partly drawn), the IC50 (on Apolipoprotein L1; in test [1]) was greater than 1000 nM throughout.

Take `O=C([C@H]1C[C@H](c2c(-c3ccc(F)cc3)[nH]c3c(F)cc(F)cc32)C1)N1CCOC(O)C1` (stereo partly drawn): the IC50 on Apolipoprotein L1 is 0.25 nM; in test [1], less than 250 nM.

Consider `CCC1(O)CN(C(=O)[C@H]2C[C@H](c3c(-c4ccc(F)cc4)[nH]c4c(F)cc(F)cc43)C2)C1`, for which the IC50 (against Apolipoprotein L1; in test [1]) was greater than 1000 nM throughout.

Regarding `O=C([C@H]1C[C@H](c2c(-c3ccc(F)cc3)[nH]c3c(F)cc(F)cc32)C1)N1CC(O)C(N2CCOCC2)C1` (stereo partly drawn), the IC50 (against Apolipoprotein L1; in test [1]) was greater than 1000 nM each time.

Turning to `O=C([C@H]1C[C@H](c2c(-c3ccc(F)cc3)[nH]c3c(F)cc(F)cc32)C1)N1CC(n2cccn2)C1`, the IC50 (against Apolipoprotein L1; in test [1]) was greater than 1000 nM in each case.

Consider `CO[C@H]1CCN(C(=O)[C@H]2C[C@H](c3c(-c4ccc(F)cc4)[nH]c4c(F)cc(F)cc43)C2)C1`, for which the 50% inhibitory concentration (IC50) (on Apolipoprotein L1; in test [1]) was greater than 1000 nM in each case.

For the compound `NC(=O)C1CCN(C(=O)[C@H]2C[C@H](c3c(-c4ccc(F)cc4)[nH]c4c(F)cc(F)cc43)C2)CC1`, the IC50 (against Apolipoprotein L1; in test [1]) was greater than 1000 nM each time.

Consider `O=C([C@H]1C[C@H](c2c(-c3ccc(F)cc3)[nH]c3c(F)cc(F)cc32)C1)N1CCC(CO)(CO)CC1`, for which the IC50 (on Apolipoprotein L1; in test [1]) was greater than 1000 nM in each case.

Regarding `O=C([C@H]1C[C@H](c2c(-c3ccc(F)cc3)[nH]c3c(F)cc(F)cc32)C1)N1CC[C@H](CO)[C@H](O)C1`, the IC50 (against Apolipoprotein L1; in test [1]) was greater than 1000 nM each time.

On to `C[C@H]1CN(C(=O)[C@H]2C[C@H](c3c(-c4ccc(F)cc4)[nH]c4c(F)cc(F)cc43)C2)CC[C@@H]1O`, for which the IC50 (on Apolipoprotein L1; in test [1]) was greater than 1000 nM each time.

For the compound `CC(O)C1CCN(C(=O)[C@H]2C[C@H](c3c(-c4ccc(F)cc4)[nH]c4c(F)cc(F)cc43)C2)CC1` (stereo partly drawn), the IC50 (on Apolipoprotein L1; in test [1]) was greater than 1000 nM each time.

Turning to `O=C([C@H]1C[C@H](c2c(-c3ccc(F)cc3)[nH]c3c(F)cc(F)cc32)C1)N1CCC(CCO)CC1`, the IC50 (on Apolipoprotein L1; in test [1]) was greater than 1000 nM in each case.

`CCC(O)(CCCO)CNC(=O)[C@H]1C[C@H](c2c(-c3ccc(F)cc3)[nH]c3c(F)cc(F)cc32)C1` (stereo partly drawn): the IC50 (against Apolipoprotein L1; in test [1]) was greater than 1000 nM throughout.

Take `O=C([C@H]1C[C@H](c2c(-c3ccc(F)cc3)[nH]c3c(F)cc(F)cc32)C1)N1CCC2(COC2)C1`: the half-inhibitory concentration (IC50) (against Apolipoprotein L1; in test [1]) was greater than 1000 nM in each case.

Regarding `O=C([C@H]1C[C@H](c2c(-c3ccc(F)cc3)[nH]c3c(F)cc(F)cc32)C1)N1CCC(O)(O)CC1`, the values for the IC50 (on Apolipoprotein L1; in test [1]) were greater than 1000 nM and 250 nM, respectively.

Turning to `CCN(C(=O)[C@H]1C[C@H](c2c(-c3ccc(F)cc3)[nH]c3c(F)cc(F)cc32)C1)C(C)CO` (stereo partly drawn), the IC50 against Apolipoprotein L1 is greater than 1000 nM; in test [1], 250 nM.

Take `CN(CC1(CO)CCOCC1)C(=O)[C@H]1C[C@H](c2c(-c3ccc(F)cc3)[nH]c3c(F)cc(F)cc32)C1`: the IC50 (on Apolipoprotein L1; in test [1]) was greater than 1000 nM each time.

`O=C([C@H]1C[C@H](c2c(-c3ccc(F)cc3)[nH]c3c(F)cc(F)cc32)C1)N(CCOCCO)C1CCC1`: the IC50 (on Apolipoprotein L1; in test [1]) was greater than 1000 nM in each case.

With `O=C([C@H]1C[C@H](c2c(-c3ccc(F)cc3)[nH]c3c(F)cc(F)cc32)C1)N1CCOCC1CCO` (stereo partly drawn), the IC50 (against Apolipoprotein L1; in test [1]) was greater than 1000 nM in each case.

Consider `O=C([C@H]1C[C@H](c2c(-c3ccc(F)cc3)[nH]c3c(F)cc(F)cc32)C1)N1C[C@H]2C[C@@]2(CO)C1`, for which the IC50 (against Apolipoprotein L1; in test [1]) was greater than 1000 nM in each case.

Turning to `O=C([C@H]1C[C@H](c2c(-c3ccc(F)cc3)[nH]c3c(F)cc(F)cc32)C1)N1C2CCC(C2)C1CO` (stereo partly drawn), the IC50 (on Apolipoprotein L1; in test [1]) was greater than 1000 nM in each case.

For `CN(C)C[C@@H]1CCN(C(=O)[C@H]2C[C@H](c3c(-c4ccc(F)cc4)[nH]c4c(F)cc(F)cc43)C2)C[C@H]1O`, the values for the IC50 (against Apolipoprotein L1; in test [1]) were greater than 1000 nM and 250 nM, respectively.

Take `O=C([C@H]1C[C@H](c2c(-c3ccc(F)cc3)[nH]c3c(F)cc(F)cc32)C1)N(CCO)c1cnccn1`: the IC50 (on Apolipoprotein L1; in test [1]) was greater than 1000 nM throughout.

On to `O=C([C@H]1C[C@H](c2c(-c3ccc(F)cc3)[nH]c3c(F)cc(F)cc32)C1)N1C[C@@H]2[C@@H](CO)[C@@H]2C1`, for which the IC50 (on Apolipoprotein L1; in test [1]) was greater than 1000 nM each time.

Consider `O=C([C@H]1C[C@H](c2c(-c3ccc(F)cc3)[nH]c3c(F)cc(F)cc32)C1)N1CCCC[C@@H]1CO`, for which the IC50 was greater than 1000 nM against Apolipoprotein L1 and 250 nM in test [1].

For `O=C(NCCCO)[C@H]1C[C@H](c2c(-c3ccc(F)cc3)[nH]c3c(F)cc(F)cc32)C1`, the IC50 is 0.25 nM on Apolipoprotein L1 and less than 250 nM in test [1].

For the origin of these results see ChEMBL document CHEMBL5052856, “Inhibitors of apol1 and methods of using same” (2021).
